Literature values, collected in patent publication US9381220B2, “Sceletium extract and uses thereof” (H. L. Hall & Sons Limited, priority 2009, dated 2016).

Key:
PDE4 = conditions: Napoletano et al. 2001
5-HT uptake = 5-HT uptake (Homo sapiens, UniProt P31645); conditions: as described in U.S. Pat. No. 6,288,104
[1] = fermentation, exposure to light, exposure to heat, aqueous medium

5-HT uptake, sequence (P31645 whole entry): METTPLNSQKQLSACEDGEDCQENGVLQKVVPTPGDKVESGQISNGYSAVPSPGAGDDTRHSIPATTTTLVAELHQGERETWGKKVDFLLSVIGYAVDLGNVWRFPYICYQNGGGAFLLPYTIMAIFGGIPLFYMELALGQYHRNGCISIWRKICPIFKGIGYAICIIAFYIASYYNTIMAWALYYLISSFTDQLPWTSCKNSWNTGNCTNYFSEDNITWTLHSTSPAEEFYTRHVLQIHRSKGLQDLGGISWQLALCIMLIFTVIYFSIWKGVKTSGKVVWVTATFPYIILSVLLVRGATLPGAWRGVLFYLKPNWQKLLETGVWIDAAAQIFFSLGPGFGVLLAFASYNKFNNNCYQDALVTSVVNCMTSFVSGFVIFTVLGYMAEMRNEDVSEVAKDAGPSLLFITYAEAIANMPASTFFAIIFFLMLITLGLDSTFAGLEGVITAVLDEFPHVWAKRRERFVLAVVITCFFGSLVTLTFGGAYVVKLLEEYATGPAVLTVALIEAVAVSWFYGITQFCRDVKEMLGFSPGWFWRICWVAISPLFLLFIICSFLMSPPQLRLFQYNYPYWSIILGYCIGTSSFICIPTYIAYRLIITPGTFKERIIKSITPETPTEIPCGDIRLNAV

Question: Which PDE4 inhibition (PDE4) does the source give for COc1ccc(C23CCC(=O)CC2N(C)CC3)cc1OC.Cl (stereo not drawn) [Mesembrine hydrochloride] here?
Answer: weak PDE4 inhibitor

Question: For COc1ccc(C23C=CC(O)CC2N(C)CC3)cc1OC (stereo not drawn) [mesembrenol], which “5-HT uptake inhibitory activity” value (5-HT uptake) is on record?
Answer: potent 5-HT uptake inhibitory activity

Question: For COc1ccc([C@@]23CCC(=O)C[C@@H]2N(C)CC3)cc1OC [mesembrine], which stability [1] is on record?
Answer: unstable
